Experimental data: publication PMC3149978 (Clinical cancer research : an official journal of the …, 2011)
Where two headings read alike, the source gives them in different places.

Assays:
[1] = in vivo, po
[2] = human, in vivo
[3] = Extended pharmacokinetic sampling after the first dose
[4] = system: pediatric patients with refractory solid tumors; assay: Phase I dose escalation and toxicity evaluation; type: in vivo, human
[5] = system: VEGF; assay: Plasma angiogenic biomarker ELISA, baseline vs day 28 of cycle 1; type: in vivo, human; conditions: baseline to day 28 of cycle 1; 12 patients; p = 0.002
[6] = system: refractory solid tumors; assay: Tumor response evaluated by RECIST; type: in vivo, human
[7] = system: stromal cell -derived factor-1 (SDF-1); assay: Plasma angiogenic biomarker ELISA, baseline vs day 28 of cycle 1; type: in vivo, human; conditions: baseline to day 28 of cycle 1; 12 patients
[8] = clinical; conditions: human, in vivo, 20 mg/m2
[9] = system: placental growth factor (PlGF); assay: Plasma angiogenic biomarker ELISA, baseline vs day 28 of cycle 1; type: in vivo, human; conditions: baseline to day 28 of cycle 1; 12 patients; p = 0.0003
[10] = Steady-state trough plasma concentrations in cycle 1
[11] = system: Circulating endothelial cells (CECs) and endothelial progenitor cells (CEPs); assay: Circulating endothelial cells and progenitor cells by flow cytometry; type: in vivo, human; conditions: 11 patients with paired baseline and day 28 samples
[12] = system: endoglin; assay: Plasma angiogenic biomarker ELISA, baseline vs day 28 of cycle 1; type: in vivo, human; conditions: baseline to day 28 of cycle 1; 12 patients; p = 0.01
[13] = system: monocyte counts; assay: Absolute monocyte counts, day 1 vs day 28; type: in vivo, human
[14] = system: adult patients; conditions: cited from earlier work
[15] = dose level 15 g/m^2 (so in the source), N = 8
[16] = 17 patients with decreases, day 1 to day 28

CCNCCNC(=O)c1c(C)[nH]c(/C=C2\C(=O)Nc3ccc(F)cc32)c1C [SU12662]
steady state plasma concentrations reached by [1]: ≤ 7 days | Tmax, Max [2]: 48.7 h | Tmax, Median [2]: 8.0 h | Tmax, Min [2]: 4.0 h | Cmax ([2]; 20 mg/m2): 5.3 ng/mL | Tmax ([2]; 20 mg/m2): 8.0 h | AR (accumulation ratio = Css/C24h) ([3]; dose level 20 mg/m^2, N = 1): 4.2 | AR (accumulation ratio = Css/C24h), Max [3, 15]: 11.1 | AR (accumulation ratio = Css/C24h), Median [3, 15]: 6.4 | AR (accumulation ratio = Css/C24h), Min [3, 15]: 3.4

CCN(CC)CCNC(=O)c1c(C)[nH]c(/C=C2\C(=O)Nc3ccc(F)cc32)c1C [Sunitinib]
cardiac toxicity ([4]; Patient 2, 15 mg/m^2, Day 28, Cycle 1, doxorubicin 367 mg/m^2, prior cardiac radiation): Symptomatic diastolic and systolic dysfunction; transient ischemic changes on EKG | maximum tolerated dose ([4]; children without prior anthracycline exposure or radiation therapy involving a cardiac field): 15 mg/m^2 | ALT elevation G1 ([4]; human, in vivo): 11% | Hypophosphatemia G1 ([4]; human, in vivo): 11% | Leukopenia G1 ([4]; human, in vivo): 40% | Thrombocytopenia G1 ([4]; human, in vivo): 40% | ALT elevation G1 ([4]; human, in vivo, 1 cycle): 17% | AST elevation G1 ([4]; human, in vivo, 1 cycle): 33% | Anemia G1 ([4]; human, in vivo, 1 cycle): 25% | Anorexia G2 ([4]; human, in vivo, 1 cycle): 17% | Diarrhea G1 ([4]; human, in vivo, 1 cycle): 33% | Hypoalbuminemia G1 ([4]; human, in vivo, 1 cycle): 25% | Hypocalcemia G1 ([4]; human, in vivo, 1 cycle): 25% | patients who developed hypothyroidism (≤ grade 2) ([4]; human, in vivo, 1 cycle): Three of 23 | ALT elevation G2 ([4]; human, in vivo, 42 days): 11% | Anorexia G1 ([4]; human, in vivo, 42 days): 11% | CNS hemorrhage G4 ([4]; human, in vivo, 42 days): 11% | Constipation G1 ([4]; human, in vivo, 42 days): 11% | Cranial neuropathy G4 ([4]; human, in vivo, 42 days): 11% | Decreased serum bicarbonate G1 ([4]; human, in vivo, 42 days): 11% | Dehydration G1 ([4]; human, in vivo, 42 days): 11% | Diarrhea G1 ([4]; human, in vivo, 42 days): 11% | Diarrhea G2 ([4]; human, in vivo, 42 days): 11% | Epistaxis G1 ([4]; human, in vivo, 42 days): 11% | Eye swelling G1 ([4]; human, in vivo, 42 days): 11% | Headache G1 ([4]; human, in vivo, 42 days): 11% | Hypernatremia G1 ([4]; human, in vivo, 42 days): 11% | Hypertension G1 ([4]; human, in vivo, 42 days): 11% | Hyperuricemia G1 ([4]; human, in vivo, 42 days): 11% | Hyperuricemia G4 ([4]; human, in vivo, 42 days): 11% | Hypoalbuminemia G1 ([4]; human, in vivo, 42 days): 11% | Hypomagnesemia G1 ([4]; human, in vivo, 42 days): 11% | Hypothyroidism G1 ([4]; human, in vivo, 42 days): 11% | Left ventricular systolic dysfunction G2 ([4]; human, in vivo, 42 days): 17% | Leukopenia G1 ([4]; human, in vivo, 42 days): 33% | Leukopenia G2 ([4]; human, in vivo, 42 days): 17% | Leukopenia G3 ([4]; human, in vivo, 42 days): 25% | Lipase elevation G1 ([4]; human, in vivo, 42 days): 11% | Lymphopenia G1 ([4]; human, in vivo, 42 days): 17% | Lymphopenia G3 ([4]; human, in vivo, 42 days): 17% | Muscle or joint pain G1 ([4]; human, in vivo, 42 days): 11% | Muscle or joint pain G2 ([4]; human, in vivo, 42 days): 11% | Neutropenia G2 ([4]; human, in vivo, 42 days): 17% | Neutropenia G3 ([4]; human, in vivo, 42 days): 33% | Thrombocytopenia G1 ([4]; human, in vivo, 42 days): 42% | Thrombocytopenia G2 ([4]; human, in vivo, 42 days): 25% | Weight loss G2 ([4]; human, in vivo, 42 days): 17% | cardiac dysfunction ([4]; in vivo): No cardiac dysfunction was observed | changes in hair color and texture ([4]; in vivo): not reported | growth plate thickening ([4]; in vivo): did not demonstrate any growth plate thickening | hypertension ([4]; in vivo): rarely reported | patients who developed hypothyroidism (≤ grade 2) ([4]; in vivo): Two patients | maximum tolerated dose ([4]; patients without prior anthracycline or cardiac radiation exposure, once daily for 28 days followed by a 14-day break): 15 mg/m^2/day | change in plasma VEGF concentration [5]: increased significantly | objective responses ([6]; 17 patients evaluable for response): No objective responses were observed | patients with best response of stable disease ([6]; diffuse pontine glioma (2 cycles), osteosarcoma (4 cycles), epithelioid sarcoma (9 cycles), ganglioglioma (9 cycles)): Four patients | 123I-meta-iodobenzylguanidine scan finding ([6]; one patient with neuroblastoma, one cycle at 20 mg/m^2, persistent bone marrow disease): resolution of the disease noted at baseline | change in plasma SDF-1 concentration [7]: did not change in a consistent manner | AUC0-48h [2]: 0.698 ng·h/mL | AUC0-48h, Median [2]: 0.492 ng·h/mL | AUC0-∞ [2]: 0.879 ng·h/mL | AUC0-∞, Median [2]: 0.747 ng·h/mL | Tmax, Max [2]: 48.0 h | Tmax, Min [2]: 2.0 h | median peak plasma concentration [2]: 16.8 ng/mL | peak plasma concentration, range [2]: 9.5 to 61.4 ng/mL | time at which median peak plasma concentration was achieved [2]: 7 h | Cmax [8]: 26.3 ng/mL | change in plasma placental growth factor concentration [9]: increased significantly | Css, Max ([10]; 15 mg/m^2 dose level): 57.9 ng/mL | Css, Median ([10]; 15 mg/m^2 dose level): 28.0 ng/mL | Css, Min ([10]; 15 mg/m^2 dose level): 13.2 ng/mL | Css, Max ([10]; 20 mg/m^2 dose level): 65.0 ng/mL | Css, Median ([10]; 20 mg/m^2 dose level): 36.5 ng/mL | Css, Min ([10]; 20 mg/m^2 dose level): 28.2 ng/mL | Day 21 Css sunitinib ([10]; Patient 1 with cardiac toxicity, 20 mg/m^2): 40 ng/mL | Day 21 Css sunitinib ([10]; Patient 2 with cardiac toxicity, 15 mg/m^2): 18 ng/mL | steady state plasma concentrations reached by ([10]; once daily oral dosing, cycle 1): ≤ 7 days | change in totals and subsets of CECs and CEPs [11]: did not reliably change | change in plasma endoglin concentration [12]: decreased significantly | decrease in AMC, range [13, 16]: 18 to 1253 µL⁻¹ | median decrease in AMC [13, 16]: 117 µL⁻¹ | patients with decreases in absolute monocyte count (AMC) ([13]; 18 patients with paired day 1 and day 28 counts): 17 | incidence of grade 3 or symptomatic congestive heart failure ([14]; adult patients treated with sunitinib, ref [30]-[32]): 7-15% | cases requiring dose reductions ([14]; adults treated with sunitinib, ref [5], [6], [24], [25]): 11-50%
